The results in this text go back to patent US6313104A, “Organoprotective solutions” (Abbott Laboratories, priority 1999, dated 2001).

Entries after “also recorded” stand apart in the source; their conditions may differ.

Test [1] has as its system MHC class I. Description: IFN-γ-induced MHC class I expression on PTEC, flow cytometry. The format is cell-based. As for the experimental part: (§1) Proximal tubular epithelial cells were cultured according to the methods described by Detrisac et al. (25). In short: PTEC were grown on tissue culture flasks that had been coated with collagen I (Sigma St. Louis Mo.) and Foetel Calf Serum (FCS, from Gibco BRL). The culture medium consisted of Dulbeco's eagle's medium and Ham's medium (both from Gibco BRL) in a 1:1 ratio, supplemented with insulin ([…]), transferrin (5 μg/ml), selenium (5 ng/ml), hydrocortisone (36 ng/ml), triiodothyronine (4 pg/ml) epidermal growth factor (10 ng/ml), and penicillin/streptomycin (5 IE/ml, 5 μg/ml) (all from Sigma). The cell lines were acquired from multiple sources including biopsy tissue pretransplant, allografts unsuitable for transplantation and from grossly normal surgical nephrectomy specimens. Experiments were performed using cells from passages one to four. PTEC were characterized by positive staining for the epithelial membrane antigen (EMA, Dako Glostrup Denmark) and the adenosinedeaminase binding protein (kindly provided by Dr. Dinjens, University Hospital Maastricht, the Netherlands).
(§2) Confluent monolayers of PTEC or HUVEC were trypsinized and seeded in 24-well plates. Upon confluency the cells were stimulated with IFN-γ (Sigma, St. Louis Mo.) for […] in the presence or absence various concentrations of heparinoids in various Heparin (Heparin-Braun®) was purchased from Braun Melsungen (Melsungen, Germany), low molecular weight heparin (Fragmin® P) from Pfrimmer Kabi (Erlangen, Germany), and modified low molecular weight heparins (Knoll AG Ludwigshafen, Germany).
(§3) In some experiments the culture medium was supplemented with sodium chlorate in order to inhibit sulfation of cellbound HSPG. Chlorate was used in concentrations between 50 to 150 mM for 24 hours before addition of IFN-γ and was present during the stimulation period. Sodium chloride was used as osmolarity control. Cultured cells were recovered by brief treatment with trypsin-EDTA for flow cytometry analysis.
(§4) Cells were pooled, divided into two tubes and washed. Isotype matched irrelevant antibodies conjugated to RPE and FITC (from Dako, Glostrup, Denmark) and Cy-5 (from Dianowa, Hamburg, Germany) were added to the first tube which was used as negative control for the FACS settings. Cells from the second tube were labelled with antibodies against MHC class I (RPE-conjugated, W6, 32, Dako), MHC class II (Cy-5-conjugated, CR3/43, Dianova) and ICAM 1 (FITC-conjugated, Dianova) in concentrations according to the instructions of the manufacturer. After incubation for 30 min at 4° C. the cells were washed and analysed by flow cytometry (FACScan, Becton Dickinson); a minimum of 10000 event were analysed. The results are expressed as mean fluorescence intensity (MFI).

Test [2] concerns ICAM-1. Description: IFN-γ-induced ICAM-1 expression on PTEC, flow cytometry. Type of test: cell-based. The method, then:
as §1, §2, §3, §4
(In general: In flow cytometry, cells or beads pass a laser one at a time.)

The test system of test [3] is MHC class II. The experiment in a line: IFN-γ-induced MHC class II expression on PTEC, flow cytometry. The format is cell-based. As for the experimental part: as §1, §2, §3, §4
The test system of test [4] is ICAM-1. Description: IFN-γ-induced ICAM-1 expression on HUVEC, flow cytometry. The format is cell-based, Human. The note with it: for upregulation of ICAM-1 by IFN-γ: HUVEC, 72 hours. The method, then: (§5) Human umbilical vein endothelial cells were prepared from fresh umbilical cord using the methods described by Jaffe et al (26). Briefly, endothelial cells were isolated from umbilical veins by digestion with collagenase V (Sigma, St. Louis Mo.) for 20 minutes at 37° C. Thereafter the vein was flushes with sterile medium to collect endothelial cells. The culture medium consisted of Medium 199 (Gibco BRL) supplemented with 1% FCS, Endothelial Cell Growth Factor and antibiotics (penicillin-streptomycin). The cells were cultured in 25 cm^2 flasks that had been coated with 1% gelatine (Sigma, St. Louis Mo.).
(§6) All experiments were performed with cells from passage three to six. HUVEC were characterized on the basis of positive staining for factor VIII-related antigen (Dako, High Wycombe, UK) and the endothelial marker EN4 (CD31).
as §2, §4

Test [5] relates to MHC class II. Description: IFN-γ-induced MHC class II expression on HUVEC, flow cytometry. Type of test: cell-based, Human. Particulars: for induction of MHC class II by IFN-γ: HUVEC, 72 hours. The method, then: as §5, §6, §2, §4
Test [6] concerns ^125 I-IFN-γ. The experiment in a line: Dotblot analysis: binding of 125I-IFN-γ to GAG on nitrocellulose. Particulars: 1 μl of 1 mg/ml on nitrocellulose, 1 hour at 4° C. The method, then: Small strips of nitrocellulose membranes were prepared and 1 μl of heparin, fragmin and the carious GAGS (all in a concentration of 1 mg/ml) were applied onto the strip. After air drying, the strips were fixed in 1% glutaraldehyde +0.5% cetylpyridinium chloride to prevent GAG loss and washed in Tris buffer. The non-occupied protein binding sites were blocked with 5% BSA in PBS for 30 min at 37° C. The strips were subsequently incubated with ^125 I IFN-γ for 1 hour at 4° C. in the presence or absence of heparin. Hereafter the strips were extensively washed with Tris buffer and exposed to a Kodak film.

For test [7], the system named is MHC class I. The experiment in a line: IFN-γ-induced MHC class I expression on HUVEC, flow cytometry. Type of test: cell-based, Human. Particulars: for upregulation of MHC class I by IFN-γ: HUVEC, 72 hours. The method, then: as §5, §6, §2, §4
Where [8] appears, read: PTEC, 150 mM NaClO3 from one day before and during stimulation, IFN-γ 0 to 10 ng/ml, 72 hours.
The mark [9] stands for this setting: 50 ng/ml of IFN-γ, 72 hours, no GAG.
[10] abbreviates: PTEC, 10 ng/ml IFN-γ, 72 hours, test substance 0.03 mg/ml.
The mark [11] stands for this setting: PTEC, 10 ng/ml IFN-γ, 72 hours, test substance 3 mg/ml.
Where [12] appears, read: 10 ng/ml IFN-γ, test substance 3 mg/ml.
Where [13] appears, read: 100 ng/ml IFN-γ, heparin 0.03 to 3 mg/ml.

In the case of `[Na+].[O-][Cl+2]([O-])[O-]` [NaClO3, sodium chlorate], the “modulation of MHC class I expression by IFN-γ in comparison to NaCl treated cultures” value in test [1] (setting [8]) is “significantly reduced”. Further, the “modulation of ICAM-1 expression by IFN-γ in comparison to NaCl treated cultures” value in test [2] (setting [8]) is on record as “significantly reduced”. For the same compound, in test [3] (setting [8]), the “modulation of MHC class II expression by IFN-γ in comparison to NaCl treated cultures” value is “significantly reduced”.
As to “IFN-γ: IFN-γ (Sigma), stimulus for MHC and ICAM-1 expression”, the “MHC class I expression on PTEC” value in test [1] (setting [9]) is “upregulated”. In addition, in test [2] (setting [9]), the “ICAM-1 expression on PTEC” value is on record as “upregulated”. In addition, in test [3] (setting [9]), the “MHC class II expression on PTEC” value is “induced”.
Take heparin: in test [1] (setting [10]), the “MHC class I expression after IFN-γ stimulation” value was “did not significantly inhibit”. Further, the “upregulation of MHC class I by IFN-γ” value is recorded as “only a marginal influence; also recorded: able to inhibit” in test [1] (setting [11]); “not influenced” in test [1] (PTEC, 100 ng/ml IFN-γ); “able to inhibit” in test [7] (setting [12]); “completely abolished” in test [7] (setting [13]). Further, the “upregulation of ICAM-1 by IFN-γ” value was “able to inhibit” in test [4] (setting [12]); “completely abolished” in test [4] (setting [13]); “significantly inhibited” in test [2] (setting [10]); “able to inhibit” in test [2] (setting [11]); “able to inhibit” in test [2] (PTEC, 100 ng/ml IFN-γ). Also, in test [4] (unstimulated HUVEC), the “ICAM-1 expression in the absence of IFN-γ” value is recorded as “no influence”. In addition, the “induction of MHC class II by IFN-γ” value in test [5] (setting [12]) is listed as “able to inhibit”; in test [5] (setting [13]), “able to inhibit”; in test [3] (setting [11]), “able to inhibit”; in test [3] (PTEC, 100 ng/ml IFN-γ), “able to inhibit”. Moreover, in test [5] (unstimulated HUVEC), the “MHC class II expression in the absence of IFN-γ” value is on record as “no influence”. The “MHC class II expression after IFN-γ stimulation” value in test [3] (setting [10]) is “did not significantly inhibit”. Besides, the “binding of 125I-IFN-γ with coincubation of a 3000 fold excess of fluidphase heparin” value in test [6] is given as “strongly reduced”. Also, the “binding of 125I-IFN-γ” value in test [6] (absence of fluidphase heparin) is “can bind”. Moreover, the “MHC class I expression in the absence of IFN-γ” value in test [7] (unstimulated HUVEC) is given as “no influence”.
